Data on 9 compounds can be found in patent US20250339549A1, “METHODS FOR THE DETECTION AND TREATMENT OF NON-SMALL-CELL LUNG CANCER” (Board of Regents, The University of Texas System, priority 2022, published 2025).

The subject of assay [1] is FoxO3a. Put plainly: FoxO3a phosphorylation, localisation and transcription in LUAD cells.
Assay [2] deals with AKT (Ser473) and ERK (T202/Y204) phosphorylation. Nature of the assay: Immunoblots for AKT and ERK phosphorylation in LUAD cells. Type of assay: cell-based, human. To be noted: H2291 and H1650; EGF 10 or 20 ng/mL, gefitinib 0.5 or 1 μM. (In general: Immunoblotting shows a protein as a band on a membrane.)
The subject of assay [3] is ALPP promoter. Put plainly: ChIP-qPCR for FoxO3a binding to the promoter region of ALPP gene. Format: cell-based, human. To be noted: H1650 and HCC827; 1 μM, 6 hours. An excerpt:
Subsequently, the DNA-protein complexes were enriched with Protein A/G magnetic Beads and DNA was recovered by the DNA Clean-up column.
(In general: Real-time PCR tracks product formation cycle by cycle.)

Assay [4] relates to ALPP. Put plainly: IHC for ALPP in tumor and normal tissues of gefitinib-treated H1650 tumor-bearing mice. To be noted: 50 mg/kg daily for 10 days. Type of assay: in vivo, BALB/c nude mice. How it is done:
IHC staining was performed as previously described 25.

Assay [5] concerns ALPP. Put plainly: ALPP expression in cancer cell lines after drug treatment (immunoblot, immunofluorescence, flow cytometry, qPCR, surface proteomics). Type of assay: cell-based, human. To be noted: for ALPP expression after drug washout and re-treatment: 48 hours treatment, 48 hours without inhibitor; for ALPP and percentage of ALPP+ cells over time: one to four days, 30 nM; for ALPP expression after PI3K/AKT or MEK/ERK inhibition: HCC827 and H1650 (FIG. 8D: HCC827 and PC9); for ALPP induction by other EGFR inhibitors (immunoblots): EGFR-mutant H1650 and HCC827; for fold increase in ALPP expression: EGFR TKI treatment (FIG. 7D, FIG. 15B: 30 nM, 48 hours). An excerpt: ALPP and ALPPL2 expression analysis in whole cell extracts and in the surfaceome compartment was done by mass spectrometry as previously described^19-23. Each dataset was normalized to the total number of spectral counts for each compartment^24.
Images were acquired in z-series on a spinning-disk confocal system.
Probe for ALPP was purchased from Thermo Fisher Scientific (Hs03046558_s1).

Assay [6] has as its system HCC827 and PC9 cells. Put plainly: Flow cytometry-based cell cycle analysis. Also on record: species or system human. To be noted: 30 nM. For orientation: In flow cytometry, cells or beads pass a laser one at a time.
Assay [7] has as its system HCC827 and PC9 cells. To be noted: 100 nM.
For assay [8], the system named is ALPP. To be noted: cited from earlier work.
Assay [9] deals with ALPP. To be noted: PC9 xenograft tumors; GSE161584; cited from earlier work.
Setting [10] is: EGFR mut H1650, 24- and 48-hour treatment.

In the case of `COc1cc2ncnc(Nc3ccc(F)c(Cl)c3)c2cc1OCCCN1CCOCC1` [gefitinib], the FoxO3a cytosol/nucleus distribution result in assay [1] (H1650 and HCC827) was “reduced cytosolic FoxO3a and promoted its nuclear translocation”. In addition, the “phosphorylation of FoxO3a (Ser294, Ser425)” value in assay [1] (H1650 and HCC827, 30 nM, 6 hours) was “repressed phosphorylation of FoxO3a at Ser294 and Ser425 residues”. Besides, the “transcription of FOXO3A” value in assay [1] (LUAD cells) is recorded as “not affected”. Further, in assay [2], the “AKT and ERK phosphorylation” value was “repressed phosphorylation of AKT and ERK”. In assay [3], the “FoxO3a binding to ALPP promoter (ChIP-qPCR)” value is “induced FoxO3a binding to ALPP promoter sequences”. The “tumoral ALPP surface expression (IHC)” value in assay [4] was “pronounced increases in tumoral ALPP surface expression”. Moreover, in assay [4] (normal tissues), the “ALPP protein staining in other tissues (IHC)” value is “negative or showed no appreciable difference compared to the vehicle control”. Also, the “ALPP expression (immunoblots)” value is reported as “ALPP upregulation” in [5] (setting [10]); “increased ALPP expression, although to a lesser extent” in assay [5] (EGFR wild-type, KRAS mutant H2291 and H1838); “increased ALPP expression” in [5] (TNBC cell lines BT20 and HCC1937, 1 μM). Further, the “surface ALPP expression (mass spectrometry, immunofluorescence)” value in assay [5] (EGFR mutant H1650 and PC9, 24- and 48-hour treatment) is “pronounced upregulation of surface ALPP expression”. The “surface ALPP by flow cytometry in gefitinib-resistant cells” value in assay [5] (GR HCC827 and PC9, 100 nM) is “majority of gefitinib-resistant cells expressed high level of ALPP”. For the same compound, the “ALPP expression in gefitinib-resistant (GR) cells” value in assay [5] (GR HCC827 and PC9, 100 nM, 48 hours) was “further enhanced ALPP upregulation”. The “ALPP upregulation in ALPP non-expressing cell lines” value in assay [5] (H1395, H1944, HCC2279, 1 μM, 48 hours) is “did not upregulate ALPP”. Further, the “ALPP mRNA levels” value in [5] (H1650 and HCC827) is recorded as “concomitant increases in ALPP mRNA levels”. Besides, the “ALPP levels in ALPP-positive LUAD cell lines” value in [5] (H2291, H1650, H1838, H1651, 1 μM, 48 hours) was “exhibited elevated ALPP levels”. Besides, the “ALPP expression after drug washout and re-treatment” value in assay [5] (HCC827 and PC9) was “markedly reduced in the absence of EGFR inhibitors and was restored with the addition of inhibitors”. The “ALPP and percentage of ALPP+ cells over time” value in assay [5] (HCC827 and PC9) is “gradual and sustained increase of ALPP and percentage of ALPP^+ cells”.

With `Cc1cc(C(=O)NOCCO)c(Nc2ccc(I)cc2F)n(C)c1=O` [AZD8330], the “ALPP expression after PI3K/AKT or MEK/ERK inhibition” value in [5] (100 nM, 48 hours) is reported as “drastic induction of ALPP expression”.

In the case of `CCn1cc(C(=O)O)c(=O)c2c(N)c(F)c(NC3CCCCC3)cc21` [AS1842856], the “ALPP protein expression after FoxO inhibition” value in assay [5] (LUAD cells (HCC827 and PC9), 48 hours) was “diminished ALPP protein expression”. The “effect on gefitinib-mediated ALPP upregulation” value in assay [5] (LUAD cells (HCC827 and PC9), with gefitinib, 48 hours) is given as “blunted gefitinib-mediated ALPP upregulation”.

For “EGF: epidermal growth factor, the endogenous ligand of EGFR”, the “AKT and ERK phosphorylation” value in assay [2] was “induced AKT phosphorylation at serine 473 (Ser473), and ERK phosphorylation at threonine 202 (T202) and tyrosine 204 (Y204) residues”. In addition, the “ALPP expression (immunoblots)” value in assay [5] (setting [10]) is reported as “reduced ALPP expression”. Further, the “ALPP expression in EGF-containing growth medium” value in assay [5] (H1650 and H2291, EGF 10 or 20 ng/mL, 24 and 48 hours) is “drastically reduced”.

Consider `Nc1cc(C(F)(F)F)c(-c2cc(N3CCOCC3)nc(N3CCOCC3)n2)cn1` [NVP-BKM120], for which the “ALPP expression after PI3K/AKT or MEK/ERK inhibition” value in assay [5] (100 nM, 48 hours) is on record as “drastic induction of ALPP expression”.

For `CS(=O)(=O)CCNCc1ccc(-c2ccc3ncnc(Nc4ccc(OCc5cccc(F)c5)c(Cl)c4)c3c2)o1` [lapatinib], in assay [5], the “ALPP induction by other EGFR inhibitors (immunoblots)” value is on record as “yielded similar results”.

Regarding `C=CC(=O)Nc1cc(Nc2nccc(-c3cn(C)c4ccccc34)n2)c(OC)cc1N(C)CCN(C)C` [osimertinib], the “phosphorylation of EGFR and FoxO3a” value in assay [1] (HCC827 and PC9, 30 nM) was “suppressed the phosphorylation of EGFR and FoxO3a”. Besides, the “cell cycle arrest in G0/G1” value in assay [6] is reported as “statistically significantly increased cell cycle arrest in G0/G1”. For the same compound, the “emergence of drug-resistant clones under continuous TKI treatment” value in assay [7] was “led to the emergence of drug-resistant clones”. Further, the “Ingenuity Pathway Analysis of upstream regulators” value in assay [8] (4 LUAD cell lines, RNAseq data GSE193258) was “concordant activation of FoxO3a, but not FoxO1”. Further, the “ALPP gene expression, single cell transcriptomics” value in [8] (PC9, 0, 3, 7, 14 days, GSE150949) was “progressive increase in ALPP gene expression”. Moreover, in assay [8] (PC9, day 14, GSE150949), the “LUAD cells expressing ALPP” value is listed as ~50%. Moreover, the “ALPP induction by other EGFR inhibitors (immunoblots)” value in assay [5] is given as “yielded similar results”. Further, in [5] (HCC827 and PC9, 30 nM (FIG. 8K)), the “ALPP expression (immunoblots)” value is reported as “increased ALPP expression”. In addition, the “ALPP expression after drug washout and re-treatment” value in assay [5] (HCC827 and PC9) is “markedly reduced in the absence of EGFR inhibitors and was restored with the addition of inhibitors”. Moreover, the “ALPP and percentage of ALPP+ cells over time” value in assay [5] (HCC827 and PC9) was “gradual and sustained increase of ALPP and percentage of ALPP^+ cells”. In addition, the “fold increase in ALPP expression” value is ~60 fold in [5] (HCC827 cells) and ~110 fold in assay [5] (PC9 cells).

For the compound `C#Cc1cccc(Nc2ncnc3cc(OCCOC)c(OCCOC)cc23)c1` [erlotinib], the “ALPP mRNA expression in xenograft tumors” value in assay [9] is reported as “increased ALPP mRNA expression in erlotinib-responding tumors compared with treatment naïve tumors”.

As to `O=C(Nc1ccc2[nH]nc(-c3ccncc3)c2c1)[C@@H]1CCN(CC(=O)N2CCN(c3ccc(-c4ncccn4)cc3)CC2)C1` [SCH772984], the “ALPP expression after PI3K/AKT or MEK/ERK inhibition” value in assay [5] (100 nM, 48 hours) was “drastic induction of ALPP expression”.
